Experimental findings from patent publication US8877795B2, “Identification of stabilizers of multimeric proteins” (The Board of Trustees of the Leland Stanford Junior …, priority 2010, dated 2014) are described below.

Data set [1] addresses TTR (Homo sapiens (Human), UniProt P02766). As to the kind of experiment: Determination of IC50 using the FP assay (HTS format, probe 5). To be noted: read-out: IC50 (compound concentration that resulted in 50% decrease in the FP signal); dose-response FP assay in duplicate. In kind it is binding.
Data set [2] deals with WT TTR (Homo sapiens (Human), UniProt P02766). The data set is described as follows: Acid-mediated fibril formation assay for TTR amyloidogenesis (turbidity). Particulars: TTR 3.6 μM; for % fibril formation / TTR aggregation inhibition (in words): ligand 7.2 μM, 72 h; for % fibril formation: pH 4.4, 37° C., no ligand = 100%; for inhibition of fibril formation: substoichiometric: ligand 3.0 μM, monitored over 5 days.
Experimental: The efficacy of each compound to inhibit TTR amyloidogenesis was determined by monitoring the turbidity of TTR aggregation at acidic pH, as described previously. […] The final 1 ml sample mixture was vortexed, then incubated at 37° C. for 72 hours, after which the sample was vortexed and the optical density was measured at 400 nm on a Beckman DU® 640 spectrophotometer. […] The optical density was also corrected for the absorption of all test compounds in the absence of TTR. […] The optical density (400 nm) was measured as described above at 0, 24, 48, 72, 96, and 120 hours. All assays were performed in triplicate and the average values obtained are presented.
TTR was preincubated with small molecules for 30 min at room temperature before amyloidosis was initiated (lowering pH to 4.4, incubation at 37° C.). […] The amyloidogenesis inhibition efficacy of each compound was determined by monitoring the turbidity of TTR (400 nm). The extent of TTR amyloidogenesis was quantitated at a fixed time point (72 h). All amyloid fibril formation data was normalized to TTR amyloidogenesis in the absence of inhibitor, assigned to be 100% fibril formation. […] The aggregation inhibition was monitored over 5 days using the acid-mediated fibril formation assay (compared to 3 days for the fixed time point described above) (FIG. 5B).

In data set [3] the target is human wild type TTR (Homo sapiens (Human), UniProt P02766). As to the kind of experiment: Isothermal titration calorimetry (ITC) of ligands against TTR. In kind it is binding. To be noted: for TΔS binding entropy / ΔG binding free energy / ΔH binding enthalpy: ITC; for Kd: TTR 2 μM titrated with ligand 25 μM, 25° C., one-to-one binding model, read-out: Kd (ITC). Here is the method: Calorimetric titrations were carried out on a VP-ITC calorimeter (MicroCal, Northhampton, Mass.). […] Prior to each titration, all samples were degassed for 10 minutes. The initial injection of 3.0 μL was followed by 30 injections of 8.0 μL each (25° C.) to the point that TTR was fully saturated with ligand. Integration of the thermogram after subtraction of blanks yielded a binding isotherm that was analyzed with MicroCal Origin 5.0 software.

Data set [4] concerns V122I TTR cytotoxicity in human AC16 cardiac cells. As to the kind of experiment: Inhibition of V122I TTR cytotoxicity in AC16 cells. To be noted: TTR and ligand 8 μM, 24 h.
Experimental: (§1) The human cardiac cell line AC16 was maintained in DMEM:F12 (1:1) supplemented with 10% FBS, 1 mM Hepes buffer, 2 mM L-glutamine, 100 units/mL penicillin and 100 μg/mL streptomycin. Two to 4-day-old cultures (˜70% confluent) were used for the experiments.
(§2) Recombinant WT TTR purified in the cold in HBSS (Mediatech, Manassas, Va.) was used as a cytotoxic insult to IMR-32 cells and the amyloidogenic V122I TTR was used as cytotoxic insult to cardiac AC16 cells. Candidate compounds (16 mM in DMSO) were diluted 1:1000 with WT TTR or V122I TTR (16 mM in HBSS, filter sterilized) or with HBSS only. The mixtures were vortexed and incubated for 24 h at 4° C. WT TTR or V122I TTR (16 mM in HBSS) containing the same amount of DMSO than TTR/candidate compound mixtures was prepared in parallel and incubated under the same conditions.
(§3) The neuroblastoma IMR-32 and the cardiac AC16 cells were seeded in black wall, clear bottom, tissue culture treated 96-well plates (Costar) at a density of 6,000 cells/well and 250 cells/well, respectively in Opti-mem supplemented with 5% FBS, 1 mM Hepes buffer, 2 mM L-glutamine, 100 units/mL penicillin and 100 μg/mL streptomycin, 0.05 mg/mL CaCl2 and incubated overnight at 37° C. The medium was then removed and replaced immediately by the TTR/compound or HBSS previously diluted 1:1 in Opti-mem supplemented with 0.8 mg/mL BSA, 2 mM Hepes buffer, 4 mM L-glutamine, 200 units/mL penicillin, 200 μg/mL streptomycin and 0.1 mg/mL CaCl2. The cells were incubated 24 h at 37° C. after which cell viability was measured.
(§4) Cell viability of the cells treated with TTR or TTR/candidate compound was evaluated by a resazurin reduction assay. Briefly, 10 μL/well of resazurin (500 mM, PBS) was added to each well and incubated for 2-3 h at 37° C. Viable cells reduce resazurin to the highly fluorescent resorufin dye, which is quantitated in a multiwell plate reader (Ex/Em 530/590 nm, Tecan Safire2, Austria). Cell viability was calculated as percentage of fluorescence relative to cells treated with vehicle only (100% viability) after subtraction of blank fluorescence (wells without cells). All experimental conditions were performed at least in six replicates. Averages and SEM corresponding to 2 independently performed experiments were calculated.
(§5) The compounds under study were pre-incubated with WT TTR or V122I TTR for 24 h at 4° C. at equimolar concentrations (8 μM) and added to IMR-32 cells or AC16 cells, respectively. Cell viability was measured after 24 h by a resazurin reduction assay. […] The percentage of viable cells was calculated relative to cells treated with vehicle only (cell culture media and DMSO)—which were assigned to be 100% viable.
Data set [5] has as its system WT TTR cytotoxicity in human IMR-32 neuroblastoma cells. The data set is described as follows: Inhibition of WT TTR cytotoxicity in IMR-32 cells. To be noted: TTR and ligand 8 μM, 24 h.
Experimental: as §1, §2, §3, §4, §5

For the molecule `Cc1ccccc1/C=C1\SC(=O)NC1=O`, the IC50 in data set [1] was 3.35 µM. For the same molecule, the “% fibril formation” value in data set [2] is recorded as 10.44 ± 4.88%.
On to `COc1ccccc1CC(=O)c1ccc(O)cc1O`, for which the IC50 in data set [1] came to 2.66 µM. The “% fibril formation” value in data set [2] stood at 9.60 ± 1.58%.
`O=C1C(Br)=CC(=NS(=O)(=O)c2ccccc2)C=C1Br`: in data set [1], the IC50 was found to be 5.41 µM. The “% fibril formation” value in data set [2] turned out to be 43.25 ± 4.35%.
Usually Kd stands for a measure of binding affinity in units of concentration. As for `NCCOCCOCCOc1c(Cl)cc(Nc2ccccc2C(=O)O)cc1Cl` [Compound 4, 2-(4-(2-(2-(2-aminoethoxy)ethoxy)ethoxy)-3,5-dichlorophenylamino)benzoic acid], in data set [3], the TΔS binding entropy amounted to 0.08 ± 0.01 kcal/mol, the “ΔG binding free energy” value is -8.93 ± 0.14 kcal/mol, the ΔH binding enthalpy was -8.85 ± 0.95 kcal/mol and the equilibrium dissociation constant (Kd) was 0.285 µM.
Turning to `O=C1NC(=O)/C(=C/c2cccc(C(F)(F)F)c2)S1`, the IC50 in data set [1] stood at 0.815 µM. Further, the “% fibril formation” value in data set [2] is reported as 1.92 ± 1.08%.
As for `Oc1nc(O)c2sc3nc(C(F)(F)F)cc(Cc4ccccc4)c3c2n1`, the IC50 in data set [1] turned out to be 5.6 µM. The “% fibril formation” value in data set [2] stood at 35.32 ± 3.69%.
Regarding `O=C(O)c1ccccc1Nc1cc(Cl)c(OCCOCCOCCNC(=S)Nc2ccc3c(c2)C(=O)OC32c3ccc(O)cc3Oc3cc(O)ccc32)c(Cl)c1` [Compound 5, 2-(3,5-dichloro-4-(2-(2-(2-(3-(3′,6′-dihydroxy-3-oxo-3H-spiro[isobenzofuran-1,9′-xanthene]-5-yl)thioureido)ethoxy)ethoxy)ethoxy)phenylamino)benzoic acid], the “decrease in binding affinity to TTR on attaching FITC to 4” value in data set [3] (5 relative to 4) is reported as roughly 3 fold. Moreover, in data set [3], the TΔS binding entropy amounted to 1.44 ± 0.07 kcal/mol, the “ΔG binding free energy” value is -8.30 ± 0.45 kcal/mol, the ΔH binding enthalpy is -6.86 ± 0.36 kcal/mol and the Kd is 0.82 µM.
For the molecule `O=c1cc(-c2ccc(O)cc2)oc2cc(O)cc(O)c12`, the IC50 in data set [1] came out at 0.653 µM. Further, the “% fibril formation” value in data set [2] worked out at 10.07 ± 0.53%.
For `O=[N+]([O-])c1cc(O)c(O)c([N+](=O)[O-])c1` [3,5-dinitrocatechol, reference compound], the “prevention of V122I TTR-induced cytotoxicity (in words)” value in data set [4] was “poor inhibitor”. Also, in data set [2], the “TTR aggregation inhibition (in words)” value is recorded as “potent aggregation inhibitors”. In addition, the “prevention of WT TTR-induced cytotoxicity (in words)” value in data set [5] is reported as “poor inhibitor”.
Take `O=C1NC(=O)/C(=C/c2ccc(-c3ccc(Cl)c(C(=O)O)c3)o2)S1`: in data set [1], the IC50 stood at 3.93 µM. In data set [2], the “% fibril formation” value stood at 13.90 ± 5.52%.
On to `Cc1n[nH]c(C)c1CCCOc1ccccc1F` [drawing 61], for which the IC50 in data set [1] turned out to be 0.296 µM. In addition, in data set [2], the “% fibril formation” value stood at 0.75 ± 1.06%.
`Cc1[nH]c2ccccc2c1C(C#N)(C#N)C1C(=O)c2ccccc2C1=O`: the IC50 in data set [1] worked out at 0.586 µM. Besides, the “% fibril formation” value in data set [2] came out at 5.77 ± 3.91%.
In the case of `O=C1NC(=O)/C(=C/c2cccc3ccccc23)S1`, the IC50 in data set [1] came to 0.842 µM. For the same molecule, the “% fibril formation” value in data set [2] was 3.22 ± 0.34%.
Take `O=[N+]([O-])c1cc(O)c(O)c([N+](=O)[O-])c1` [drawing 68]: the “% fibril formation” value in data set [2] turned out to be 1.08 ± 0.59%.
As to `CCOc1cc(C2NC(C(=O)O)CS2)cc(Br)c1OCc1ccccc1C` (stereo not shown), in data set [1], the IC50 was determined as 4.93 µM. In addition, in data set [2], the “% fibril formation” value is listed as 17.57 ± 4.81%.
Consider `O=C(O)c1cccnc1Nc1cccc(C(F)(F)F)c1` [drawing 60], for which the “% fibril formation” value in data set [2] turned out to be 4.83 ± 1.19%.
With `CCOc1ccccc1-c1nc(-c2ccncc2)no1`, in data set [2], the “% fibril formation” value turned out to be 0.00 ± 0.00%.
As for `CC1(C)NC(=O)C(C#N)=C(SCc2ccccc2)S1`, the IC50 in data set [1] was 0.433 µM. The “% fibril formation” value in data set [2] turned out to be 0.52 ± 0.73%.
As to `O=C1NC(=O)/C(=C/c2ccccc2OCc2ccccc2)S1`, the IC50 in data set [1] is 5.8 µM. In data set [2], the “% fibril formation” value is 38.38 ± 3.33%.
Take `O=C(O)c1cc2nc(-c3ccc(Cl)c(Cl)c3)cc(C(F)(F)F)n2n1`: in data set [1], the IC50 came to 2.58 µM. Besides, the “% fibril formation” value in data set [2] stood at 1.81 ± 2.56%.
As to `Cc1n[nH]c(C)c1CCc1nc2c3ccccc3[nH]c(=S)n2n1` [Compound 15], the “prevention of V122I TTR-induced cytotoxicity (in words)” value in data set [4] is listed as “completely prevented TTR-induced cytotoxicity”. In addition, the “inhibition of fibril formation” value in data set [2] is given as greater than 75%. The “prevention of WT TTR-induced cytotoxicity (in words)” value in data set [5] is “completely prevented TTR-induced cytotoxicity”.
For the molecule `COc1ccc(/C=N/n2c(S)nnc2C(F)(F)F)cc1O`, the IC50 in data set [1] is 0.277 µM. Besides, the “% fibril formation” value in data set [2] amounted to 0.43 ± 0.61%.
`O=c1c(Oc2ccccc2Cl)c(C(F)(F)F)oc2cc(O)ccc12`: in data set [1], the IC50 stood at 4.22 µM. In data set [2], the “% fibril formation” value came out at 24.36 ± 1.11%.
The matching figures for `CSC1=NSC2=NC(=O)/C(=C\c3cccc4ccccc34)C(=N)N12`: 4.88 µM and 28.77 ± 6.36%.
On to `Cc1n[nH]c(C)c1CCc1nc2c3ccccc3[nH]c(=S)n2n1` [drawing 73], for which the IC50 in data set [1] worked out at 1.31 µM. Also, the “% fibril formation” value in data set [2] was 0.00 ± 0.00%.
For the molecule `COc1c(Br)cc(/C=C2\SC(=O)NC2=O)cc1Br`, the IC50 in data set [1] amounted to 0.301 µM. Besides, the “% fibril formation” value in data set [2] turned out to be 0.37 ± 0.53%.
In the case of `CC(=O)Nc1ccc(Nc2nc3ccccc3nc2NS(=O)(=O)c2ccc(C)cc2)cc1`, in data set [1], the IC50 was 10.6 µM. Also, the “% fibril formation” value in data set [2] is listed as 49.43 ± 4.26%.
Regarding `O=C(NCc1cc(Br)cc(Br)c1O)c1ccccc1`, the IC50 in data set [1] amounted to 10 µM. Further, the “% fibril formation” value in data set [2] came out at 50.96 ± 1.98%.
`O=C(O)c1cccnc1Nc1cccc(C(F)(F)F)c1` [Niflumic acid, niflumic acid, reference compound]: the “prevention of V122I TTR-induced cytotoxicity (in words)” value in data set [4] is recorded as “relatively poor inhibitor”. Moreover, the “TTR aggregation inhibition (in words)” value in data set [2] was “potent aggregation inhibitors”.
On to `O=C(c1cc(O)c(O)c([N+](=O)[O-])c1)c1ccccc1F` [drawing 69], for which the IC50 in data set [1] came out at 0.755 µM. Further, the “% fibril formation” value in data set [2] is recorded as 0.32 ± 0.45%.
Turning to `COc1cc(/C=C2\C(=N)N3N=C(S(C)(=O)=O)SC3=NC2=O)ccc1OCc1ccccc1C`, in data set [1], the IC50 is 9.76 µM. Further, the “% fibril formation” value in data set [2] was found to be 48.25 ± 0.68%.
As for `O=C(c1cc(O)c(O)c([N+](=O)[O-])c1)c1ccccc1F` [Ro 41-0960, reference compound], the “prevention of V122I TTR-induced cytotoxicity (in words)” value in data set [4] was “completely prevented TTR-induced cytotoxicity”. Moreover, in data set [3], the TΔS binding entropy was -4.3 ± 0.11 kcal/mol, the “ΔG binding free energy” value is -9.18 ± 0.47 kcal/mol, the ΔH binding enthalpy is -13.5 ± 0.32 kcal/mol and the Kd amounted to 0.184 µM. Also, in data set [3] (listed as Ro41-0960), the TΔS binding entropy was -4.3 ± 0.11 kcal/mol, the “ΔG binding free energy” value is -9.18 ± 0.47 kcal/mol and the ΔH binding enthalpy was -13.5 ± 0.32 kcal/mol. Also, in data set [2], the “TTR aggregation inhibition (in words)” value is “potent aggregation inhibitors” and the “inhibition of fibril formation” value is greater than 75%. Further, the “prevention of WT TTR-induced cytotoxicity (in words)” value in data set [5] is “completely prevented TTR-induced cytotoxicity”.
For the molecule `Cc1n[nH]c(C)c1CCCOc1ccccc1F` [Compound 7], the “prevention of V122I TTR-induced cytotoxicity (in words)” value in data set [4] was “completely prevented TTR-induced cytotoxicity”. Moreover, in data set [3], the TΔS binding entropy was -0.15 ± 0.002 kcal/mol, the “ΔG binding free energy” value is -8.86 ± 0.17 kcal/mol, the ΔH binding enthalpy is -9.01 ± 0.13 kcal/mol and the Kd worked out at 0.321 µM. The “inhibition of fibril formation” value in data set [2] is greater than 75%. For the same molecule, the “prevention of WT TTR-induced cytotoxicity (in words)” value in data set [5] was “completely prevented TTR-induced cytotoxicity”.
For the molecule `CN1C(=N)NC(=O)/C1=C/c1cc(Br)c(O)c(Br)c1` [drawing 72], in data set [1], the IC50 came out at 1.15 µM. In data set [2], the “% fibril formation” value was found to be 0.00 ± 0.00%.
As for `O=c1c(Oc2ccccc2Br)coc2cc(O)ccc12`, the IC50 in data set [1] stood at 3.71 µM. In data set [2], the “% fibril formation” value was 13.91 ± 1.28%.
Take `Cc1nc2c(C(=O)NCCC(C)C)cnn2c(O)c1Cc1ccccc1F`: in data set [1], the IC50 worked out at 11 µM. The “% fibril formation” value in data set [2] is on record as 47.39 ± 1.94%.
For the molecule `O=C(O)Cc1ccccc1Nc1c(O)cccc1Cl`, in data set [1], the IC50 stood at 3.74 µM. Also, the “% fibril formation” value in data set [2] was 11.56 ± 0.72%.
For the molecule `CN1C(=N)NC(=O)/C1=C/c1cc(Br)c(O)c(Br)c1` [Compound 14], the “prevention of V122I TTR-induced cytotoxicity (in words)” value in data set [4] is reported as “completely prevented TTR-induced cytotoxicity”. In data set [3], the TΔS binding entropy was found to be 2.36 ± 0.08 kcal/mol, the “ΔG binding free energy” value is -9.02 ± 0.19 kcal/mol, the ΔH binding enthalpy is -6.66 ± 0.22 kcal/mol and the equilibrium dissociation constant (Kd) came to 0.245 µM. Further, in data set [2], the “inhibition of fibril formation” value is recorded as greater than 75%. Further, the “prevention of WT TTR-induced cytotoxicity (in words)” value in data set [5] is “completely prevented TTR-induced cytotoxicity”.
`N#CC1=C(SCc2ccccc2)SC(c2ccccc2O)NC1=O` (stereo not shown): the IC50 in data set [1] was 4.79 µM. Besides, the “% fibril formation” value in data set [2] is on record as 3.17 ± 4.48%.
The matching figures for `CC1=C(CCC(=O)O)C(=O)N2c3ccccc3NC2C1C#N` (stereo not shown): 8.69 µM and 46.24 ± 1.33%.
